1 molecule from paper PMC10989073, “Antineoplastic effect of compounds C14 and P8 on TNBC and radioresistant TNBC cells by stabilizing the K-Ras4B^G13D/PDE6δ complex” (Frontiers in Oncology, 2024) can be followed below.

What all share (type): cell-based, human
Experiment [1] deals with MCF-10A cells. The experiment in a line: Apoptosis/necrosis assay (Annexin V–propidium iodide, flow cytometry). The settings on record: 24 h, cisplatin 100 µM, doxorubicin 0.5 µM. The method, then: Apoptosis and necrosis were determined using the Apoptosis/Necrosis Detection kit (Abcam, Cambridge, UK) according to the manufacturer’s instructions. In brief, approximately 500,000 cells were seeded in 6-well plates (Corning) for 24 h. […] Cells were harvested and collected by centrifugation. All the samples were analyzed in triplicate using flow cytometry equipment FACSCalibur instrument (BD Biosciences, San Jose, CA, USA) at […] and 575-nm emission. Data analysis was performed using the FlowJo software (Tree Star Inc., Ashland, OR, USA). All experiments were performed in triplicate.
Background: In flow cytometry, cells or beads pass a laser one at a time.

Experiment [2] concerns MDA-MB-231 cells. Described as above. The settings on record: MDA-MB-231, 24 h; C14 and P8 at IC50-24, cisplatin 100 µM, doxorubicin 0.5 µM. The protocol:
(§1) To determine if the C14 and P8 compounds were able to evoke cell death by apoptosis or necrosis, cell lines MCF-10A, MDA-MB-231, and MDA-MB-231RR were treated at IC50-24 for 24 h. Apoptosis and necrosis were determined using the Apoptosis/Necrosis Detection kit (Abcam, Cambridge, UK) according to the manufacturer’s instructions. In brief, approximately 500,000 cells were seeded in 6-well plates (Corning) for 24 h. Then, each cell line was treated with the respective IC50-24 concentrations of C14 and P8. […] Cells were harvested and collected by centrifugation. All the samples were analyzed in triplicate using flow cytometry equipment FACSCalibur instrument (BD Biosciences, San Jose, CA, USA) at […] and 575-nm emission. Data analysis was performed using the FlowJo software (Tree Star Inc., Ashland, OR, USA). All experiments were performed in triplicate.

In experiment [3] the test system is MDA-MB-231RR cells. Described as above. The settings on record: 24 h, C14 and P8 at IC50-24, cisplatin 100 µM, doxorubicin 0.5 µM. The protocol:
as §1

The test system of experiment [4] is MCF-10A cells. The experiment in a line: Clonogenic assay. The settings on record: 10 to 12 days, C14 and P8 at IC50-48, cisplatin 100 µM, doxorubicin 0.5 µM. The protocol:
(§2) The principal aim of a clonogenic assay is to evaluate the effect of chemotherapy agents or new drugs by the measurement of their ability to arrest tumor cell division and their ability to develop new colonies after their exposure to these new drugs ([56]). Therefore, the colony formation ability of the cell lines MCF-10A, MDA-MB-231, and MDA-MB-231RR was evaluated after their exposure to the C14 and P8 compounds. In brief, breast cancer cell lines were cultured in 6-well plates (Corning), seeding 300 cells per well, and incubated at 37°C in 5% CO2 for 24 h. Compounds C14 and P8 were added at the maximum evaluated concentration IC50-48. As controls, cells without treatment and cells treated in the presence of a vehicle (DMSO at 0.66%) were employed (Sigma-Aldrich). […] After 10 days of treatment, cells were fixed with 4% PFA and stained with 0.1% crystal violet in citric acid (Sigma-Aldrich) for 15 minutes. Subsequently, the dye present in the cells was extracted using isopropanol and read at 570 nm in a Synergy-HTX microplate reader (BioTek). Each test was performed in triplicate. Data were expressed as % colonies relative to the untreated control ([56]).

Experiment [5] concerns MDA-MB-231 cells. The experiment in a line: Clonogenic assay. The settings on record: MDA-MB-231, 10 to 12 days; C14 and P8 at IC50-48, cisplatin 100 µM, doxorubicin 0.5 µM. The protocol:
as §2

The subject of experiment [6] is MDA-MB-231RR cells. Put plainly: Clonogenic assay. The settings on record: 10 to 12 days, C14 and P8 at IC50-48, cisplatin 100 µM, doxorubicin 0.5 µM. The method, then: as §2
Experiment [7] relates to Ras-GTP in MCF-10A cells. The experiment in a line: Ras activation pull-down assay (Raf-RBD). The conditions noted are these: 3 h pre-treatment (C14, P8 at IC50-48H), EGF 100 ng/ml 10 min. The method, then: Subsequently, the cells were stimulated with epidermal growth factor (EGF) (100 ng/ml) for 10 minutes. Lysates (1 mg/ml) were exposed to Ras GTP-binding protein (Raf-RBD), following the manufacturer’s instructions. Experiments for each cell type and condition were repeated three times.

The test system of experiment [8] is cyclin D1 and GSK3β in MDA-MB-231 cells. The experiment in a line: Western blotting of cyclin D1 and GSK3β. The conditions noted are these: MDA-MB-231, 3 h; C14 and P8 at IC50-24 (Figure 7 legend), cisplatin 100 µM, doxorubicin 0.5 µM. The protocol:
(§3) To determine the effect of the C14 and P8 compounds over the protein effectors of K-Ras4B, AKT, and ERK, immunoblotting assays were conducted with specific antibodies. In brief, MCF-10A, MDA-MB-231, and MDA-MB-231RR cells were plated in 100-mm culture dishes until 80% of confluents. Cell adhesion was allowed for 24 h. […] After pre-treatment, cells were stimulated with 100 ng/ml EGF for 10 minutes to promote AKT and ERK activation. Later, the whole-cell extracts were obtained by the lysis of the cells (Cytoskeleton) in the presence of proteases and phosphatase inhibitors. Subsequently, the protein extracts were incubated at 4°C for 40 minutes to be clarified by centrifugation for 10 minutes at 14,000 rpm, at 4°C. The protein concentration of each extract was determined by using the Precision Red Advanced Protein Assay Reagent (Cytoskeleton) Then, approximately 25 μg of protein extract was electrophoresed in 10% sodium dodecyl sulfate–polyacrylamide gel electrophoresis (SDS-PAGE) and transferred to polyvinylidene fluoride (PVDF) membranes (Millipore, Billerica, MA, USA). Blots were probed using the following primary antibodies: Total ERK (Cell Signaling, Danvers, MA, USA), pERK (Cell Signaling), Total AKT (Cell Signaling), pAKT (Cell Signaling), GSK3β (Cell Signaling), and cyclin D1 (Abcam) at a 1:1,000 dilution. As a control, an anti-GAPDH antibody (GeneTex, Irvine, CA, USA) was employed at a 1:100,000 dilution and γ-Tubulin (Invitrogen) 1:5,000. Densitometric analysis of blots was performed using the software ImageJ version 1.45 (National Institutes of Health, Bethesda, […], USA).
In general terms: Immunoblotting shows a protein as a band on a membrane.

In experiment [9] the test system is cyclin D1 and GSK3β in MDA-MB-231RR cells. Put plainly: Western blotting of cyclin D1 and GSK3β. The conditions noted are these: 3 h, C14 and P8 at IC50-24 (Figure 7 legend), cisplatin 100 µM, doxorubicin 0.5 µM. The method, then:
as §3

Experiment [10] concerns MDA-MB-231 cells. Put plainly: Cell cycle analysis (propidium iodide, flow cytometry). The conditions noted are these: MDA-MB-231, 3 h at IC50-48H; control 10.0%. The protocol: After 3-h incubation, cells were harvested, washed twice in ice-cold PBS, and fixed overnight in 70% ethanol at 4°C. Then, cells were washed in PBS, collected by centrifugation, and stained with staining buffer (PBS with 50 µg/ml propidium iodide and 100 µg/ml RNase A).

Regarding `COc1cccc2c1C(=O)c1c(O)c3c(c(O)c1C2=O)C[C@@](O)(C(=O)CO)C[C@@H]3O[C@H]1C[C@H](N)[C@H](O)[C@H](C)O1` [Doxorubicin, doxorubicin, reference compound], the apoptosis cells entry was “up to 11.54%” in experiment [1], 4.65% in [2] and 0.61% in experiment [3]. Besides, the necrosis was 9.20% in experiment [2] and 1.28% in experiment [3]. In addition, the “reduction of colony growth” value in experiment [4] is recorded as “up to 90%”. Besides, the “reduction in colony formation” value is on record as “significant reduction” in [5] and 90% in experiment [6]. Also, in [7], the “reduction in Ras-GTP” value is 40%. The “reduction in cyclin D1 expression” value in experiment [8] is reported as “no significant effect”. Further, the “reduction in cyclin D1” value in experiment [9] is 20%. Besides, in experiment [10], the “percentage of cells in G2/M” value is “increased”.
